This is an account of results in US20110229438A1, “METHOD OF INHIBITING HEPATITUS C VIRUS BY COMBINATION OF A 5,6-DIHYDRO-1H-PYRIDIN-2-ONE AND ONE OR MORE ADDITIONAL ANTIVIRAL COMPOUNDS” (priority 2008, published 2011).

For the assay, the system named is HCV Huh-luc/neo-ET cells (HCV replicon). Briefly: Luciferase-based HCV replicon assay, single agents and combinations. As to conditions: for increase of potency in the presence of Compound 2: Compound 2 at concentrations readily achieved clinically, FIGS. 2b, 3b, Table 2. The assay is classed as cell-based, hepatitis C virus. How it is done:
The cell culture component of the assay is performed essentially as described by Bartenschlager et al., Hepatology, 2002, 35, 694-703, wherein exponentially growing HCV Huh-luc/neo-ET cells are seeded at 6×10^3 cells/well in 96 well assay plate. 24 hours later the cells are treated with various concentrations of compound or combination of compounds in triplicate using both fixed ratios and checkerboard matrices of test agents and cultured for 72 hours. The luciferase activity in the wells is determined using Bright-Glo reagent (Promega, Madison, Wis.) with a luminometer (Wallac 1420 Multilabel HTS Counter Victor 2). The background control is replicon cells treated with 100 nM BILN-2061, an inhibitor of the HCV protease. % Inhibition is determined for each compound concentration or combination of compounds in relation to the negative (no compound) control to calculate the EC50. In the case of ANA773, conditioned media from human PBMCs from multiple donors is pooled after treatment with 100 μM of the active of ANA773 for 24 hours.
Compound 2 was evaluated in combination with Interferon α-2a, Telaprevir (HCV NS3/4 protease inhibitor, also known as VX-950), PSI-6130 the active agent of R7128 (HCV NS5B nucleoside inhibitor), and ANA773 (TLR7 agonist). The 50% inhibitory concentration (EC50) of each compound or combination of compounds is determined independently to determine the range of concentrations used to characterize the interaction of two agents in inhibiting the HCV replicon. […] The ratio of the two compounds tested either remained fixed or is varied across the dosing range to explore the greatest combination surface.
The combination data is analyzed using CalcuSyn (Biosoft, Ferguson, Mo.), a computer program based on the method of Chou and Talalay, J. Biol. Chem., 1977, 252, 6438-6442. Combination index (CI) values for each experimental combination are calculated at the EC50, EC75 and EC90 levels. CI values of <1, 1, and >1 indicate synergy, an additive effect, and antagonism, respectively.
For orientation: Replicon systems follow genome replication, usually without infectious particles.

Read-outs that look alike come from different tables or passages of the source.

By EC90 is commonly meant the concentration at which the effect reaches the 90% level.

As for `C[C@@]1(F)[C@H](O)[C@@H](CO)O[C@H]1n1ccc(N)nc1=O` [PSI-6130], the “increase of potency in the presence of Compound 2” value was 4-5 fold. The EC90 (Compound 2 at 0 ng/mL (agent alone), read-out: EC90) amounted to 11600 nM. Moreover, the EC90 (in presence of fixed Compound 2 at 6 ng/mL, read-out: EC90) was 6000 nM. Also, under “in presence of fixed Compound 2 at 17 ng/mL, read-out: EC90”, the EC90 was 2400 nM.

`CCC[C@H](NC(=O)[C@@H]1[C@H]2CCC[C@H]2CN1C(=O)[C@@H](NC(=O)[C@@H](NC(=O)c1cnccn1)C1CCCCC1)C(C)(C)C)C(=O)C(=O)NC1CC1` [Telaprevir]: the “increase of potency in the presence of Compound 2” value was 2-3 fold. For the same compound, the 90% effect concentration (EC90) (Hepatitis C virus, Huh-luc/neo-ET, Compound 2 at 0 ng/mL (agent alone)) came out at 2800 nM. Also, under “Hepatitis C virus, Huh-luc/neo-ET, in presence of fixed Compound 2 at 6 ng/mL”, the 90% effect concentration (EC90) turned out to be 2400 nM. In addition, the EC90 (Hepatitis C virus, Huh-luc/neo-ET, in presence of fixed Compound 2 at 17 ng/mL) was found to be 1900 nM. Where the note is “Hepatitis C virus, Huh-luc/neo-ET, in presence of fixed Compound 2 at 170 ng/mL”, the EC90 came to 1300 nM.
